# Where “and” joins values, the source holds several entries; their conditions need not be identical. Equal entries are not always repeated.
# How the values were obtained:
# Set-up in all cases: scale not given: the % may be the effect or the level left
# [1] = biological target: Serine/threonine-protein kinase LATS1 (Homo sapiens) (UniProt O95835); assay: Inhibition of human LATS1 assessed as percent of control at 2000 nM by KINOMEscan assay relative to control
# [2] = biological target: MAP/microtubule affinity-regulating kinase 3 (Homo sapiens) (UniProt P27448); assay: Inhibition of human MARK3 assessed as percent of control at 2000 nM by KINOMEscan assay relative to control
# [3] = biological target: Ephrin type-A receptor 8 (Homo sapiens) (UniProt P29322); assay: Inhibition of human EPHA8 assessed as percent of control at 2000 nM by KINOMEscan assay relative to control
# [4] = biological target: 3-phosphoinositide-dependent protein kinase 1 (Homo sapiens) (UniProt O15530); assay: Inhibition of human PDPK1 assessed as percent of control at 2000 nM by KINOMEscan assay relative to control
# [5] = system: Receptor-type tyrosine-protein kinase FLT3 (Homo sapiens), P36888 [K663Q]; assay: Inhibition of human FLT3 K663Q mutant assessed as percent of control at 2000 nM by KINOMEscan assay relative to control
# [6] = biological target: Tyrosine-protein kinase CSK (Homo sapiens) (UniProt P41240); assay: Inhibition of human CSK assessed as percent of control at 2000 nM by KINOMEscan assay relative to control
# [7] = biological target: Vascular endothelial growth factor receptor 2 (Homo sapiens) (UniProt P35968); assay: Inhibition of human VEGFR2 assessed as percent of control at 2000 nM by KINOMEscan assay relative to control
# [8] = system: Mast/stem cell growth factor receptor Kit (Homo sapiens), P10721 [L576P]; assay: Inhibition of human KIT L576P mutant assessed as percent of control at 2000 nM by KINOMEscan assay relative to control
# Sequence of Mast/stem cell growth factor receptor Kit (Homo sapiens), P10721 [L576P] (P10721 whole entry L576P): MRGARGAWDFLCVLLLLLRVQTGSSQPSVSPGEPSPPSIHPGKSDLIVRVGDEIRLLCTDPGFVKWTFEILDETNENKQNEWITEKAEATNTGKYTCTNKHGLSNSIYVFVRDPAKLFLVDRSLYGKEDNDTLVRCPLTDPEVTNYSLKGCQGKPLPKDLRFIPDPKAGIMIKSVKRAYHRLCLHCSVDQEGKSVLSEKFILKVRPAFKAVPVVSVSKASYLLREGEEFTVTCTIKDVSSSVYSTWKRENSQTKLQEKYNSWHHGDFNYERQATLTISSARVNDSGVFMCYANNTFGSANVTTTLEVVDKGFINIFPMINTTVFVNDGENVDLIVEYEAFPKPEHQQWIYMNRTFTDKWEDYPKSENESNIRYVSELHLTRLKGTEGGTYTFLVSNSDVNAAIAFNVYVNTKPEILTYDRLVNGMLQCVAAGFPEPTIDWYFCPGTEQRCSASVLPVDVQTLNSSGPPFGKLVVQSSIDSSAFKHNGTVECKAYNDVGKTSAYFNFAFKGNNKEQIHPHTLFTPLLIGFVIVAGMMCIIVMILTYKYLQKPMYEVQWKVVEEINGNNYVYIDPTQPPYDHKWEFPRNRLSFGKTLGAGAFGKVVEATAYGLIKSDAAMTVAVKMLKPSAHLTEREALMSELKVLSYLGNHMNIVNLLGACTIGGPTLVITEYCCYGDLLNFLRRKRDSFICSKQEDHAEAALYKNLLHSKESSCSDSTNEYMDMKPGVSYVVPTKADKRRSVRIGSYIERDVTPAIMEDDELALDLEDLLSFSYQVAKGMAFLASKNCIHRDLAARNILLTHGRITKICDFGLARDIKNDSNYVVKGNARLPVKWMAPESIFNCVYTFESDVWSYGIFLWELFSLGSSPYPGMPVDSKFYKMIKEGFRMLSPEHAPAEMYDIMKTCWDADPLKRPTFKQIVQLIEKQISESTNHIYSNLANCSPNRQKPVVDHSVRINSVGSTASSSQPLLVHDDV
# [9] = biological target: Serine/threonine-protein kinase NIM1 (Homo sapiens) (UniProt Q8IY84); assay: Inhibition of human NIM1 assessed as percent of control at 2000 nM by KINOMEscan assay relative to control
# [10] = system: Tyrosine-protein kinase ABL1 (Homo sapiens), P00519 [T315I]; assay: Inhibition of phosphorylated human ABL1 T315I mutant assessed as percent of control at 2000 nM by KINOMEscan assay relative to control
# [11] = biological target: Homeodomain-interacting protein kinase 3 (Homo sapiens) (UniProt Q9H422); assay: Inhibition of human HIPK3 assessed as percent of control at 2000 nM by KINOMEscan assay relative to control
# [12] = biological target: Inhibitor of nuclear factor kappa-B kinase subunit epsilon (Homo sapiens) (UniProt Q14164); assay: Inhibition of human IKK-epsilon assessed as percent of control at 2000 nM by KINOMEscan assay relative to control
# [13] = biological target: Non-receptor tyrosine-protein kinase TNK1 (Homo sapiens) (UniProt Q13470); assay: Inhibition of human TNK1 assessed as percent of control at 2000 nM by KINOMEscan assay relative to control
# [14] = system: Hepatocyte growth factor receptor (Homo sapiens), P08581 [Y1235D]; assay: Inhibition of human MET Y1235D mutant assessed as percent of control at 2000 nM by KINOMEscan assay relative to control
# [15] = biological target: Mitogen-activated protein kinase 1 (Homo sapiens) (UniProt P28482); assay: Inhibition of human ERK2 assessed as percent of control at 2000 nM by KINOMEscan assay relative to control
# [16] = biological target: Serine/threonine-protein kinase WNK1 (Homo sapiens) (UniProt Q9H4A3); assay: Inhibition of human WNK1 assessed as percent of control at 2000 nM by KINOMEscan assay relative to control
# [17] = biological target: Myosin-IIIa (Homo sapiens) (UniProt Q8NEV4); assay: Inhibition of human MYO3A assessed as percent of control at 2000 nM by KINOMEscan assay relative to control
# Sequence of Myosin-IIIa (Homo sapiens) (Q8NEV4 whole entry): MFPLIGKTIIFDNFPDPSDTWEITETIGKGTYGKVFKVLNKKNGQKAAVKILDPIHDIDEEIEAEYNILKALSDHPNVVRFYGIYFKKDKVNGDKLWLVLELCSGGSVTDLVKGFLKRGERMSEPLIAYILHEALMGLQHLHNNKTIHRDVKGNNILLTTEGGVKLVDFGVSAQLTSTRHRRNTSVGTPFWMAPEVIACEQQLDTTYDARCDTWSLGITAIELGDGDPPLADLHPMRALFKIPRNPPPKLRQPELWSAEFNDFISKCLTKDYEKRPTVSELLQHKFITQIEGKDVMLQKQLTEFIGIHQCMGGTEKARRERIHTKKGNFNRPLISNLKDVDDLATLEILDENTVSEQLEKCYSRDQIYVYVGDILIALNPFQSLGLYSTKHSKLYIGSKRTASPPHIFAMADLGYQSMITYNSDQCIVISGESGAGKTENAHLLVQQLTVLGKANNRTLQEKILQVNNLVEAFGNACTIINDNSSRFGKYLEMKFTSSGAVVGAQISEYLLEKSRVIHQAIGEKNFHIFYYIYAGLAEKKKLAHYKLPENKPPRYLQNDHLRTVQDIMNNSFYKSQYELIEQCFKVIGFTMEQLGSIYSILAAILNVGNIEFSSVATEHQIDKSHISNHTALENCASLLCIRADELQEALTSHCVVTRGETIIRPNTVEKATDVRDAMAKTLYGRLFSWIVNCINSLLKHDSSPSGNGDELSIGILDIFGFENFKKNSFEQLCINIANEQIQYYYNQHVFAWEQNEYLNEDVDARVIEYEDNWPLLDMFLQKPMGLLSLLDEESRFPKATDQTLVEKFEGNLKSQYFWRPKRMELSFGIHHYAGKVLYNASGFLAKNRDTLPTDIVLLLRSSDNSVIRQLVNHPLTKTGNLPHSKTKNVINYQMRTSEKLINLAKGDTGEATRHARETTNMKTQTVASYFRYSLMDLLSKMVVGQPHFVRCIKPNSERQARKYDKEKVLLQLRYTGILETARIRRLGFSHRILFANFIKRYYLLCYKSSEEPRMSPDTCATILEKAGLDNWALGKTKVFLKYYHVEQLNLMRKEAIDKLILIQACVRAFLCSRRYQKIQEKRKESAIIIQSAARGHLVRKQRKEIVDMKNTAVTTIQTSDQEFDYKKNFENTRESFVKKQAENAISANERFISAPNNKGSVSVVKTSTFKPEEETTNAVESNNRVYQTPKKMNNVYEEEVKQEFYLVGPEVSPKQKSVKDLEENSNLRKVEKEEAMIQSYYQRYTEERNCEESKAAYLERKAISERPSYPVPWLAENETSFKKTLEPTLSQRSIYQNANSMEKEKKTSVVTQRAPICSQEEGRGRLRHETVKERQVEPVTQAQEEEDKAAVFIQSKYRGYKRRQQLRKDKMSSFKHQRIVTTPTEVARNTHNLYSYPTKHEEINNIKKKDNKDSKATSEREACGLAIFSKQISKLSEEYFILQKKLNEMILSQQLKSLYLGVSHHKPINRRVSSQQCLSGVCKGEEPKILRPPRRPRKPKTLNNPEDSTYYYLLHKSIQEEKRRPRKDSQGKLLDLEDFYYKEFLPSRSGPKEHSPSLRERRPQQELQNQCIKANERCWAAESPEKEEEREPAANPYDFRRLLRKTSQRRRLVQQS
# [18] = biological target: Cyclin-dependent kinase 2 homolog (Plasmodium falciparum (isolate K1 / Thailand)) (UniProt Q07785); assay: Inhibition of Plasmodium falciparum PFPK5 assessed as percent of control at 2000 nM by KINOMEscan assay relative to control
# [19] = biological target: Proto-oncogene tyrosine-protein kinase Src (Homo sapiens) (UniProt P12931); assay: Inhibition of human SRC assessed as percent of control at 2000 nM by KINOMEscan assay relative to control
# Sequence of Proto-oncogene tyrosine-protein kinase Src (Homo sapiens) (P12931 2-536 limits assumed): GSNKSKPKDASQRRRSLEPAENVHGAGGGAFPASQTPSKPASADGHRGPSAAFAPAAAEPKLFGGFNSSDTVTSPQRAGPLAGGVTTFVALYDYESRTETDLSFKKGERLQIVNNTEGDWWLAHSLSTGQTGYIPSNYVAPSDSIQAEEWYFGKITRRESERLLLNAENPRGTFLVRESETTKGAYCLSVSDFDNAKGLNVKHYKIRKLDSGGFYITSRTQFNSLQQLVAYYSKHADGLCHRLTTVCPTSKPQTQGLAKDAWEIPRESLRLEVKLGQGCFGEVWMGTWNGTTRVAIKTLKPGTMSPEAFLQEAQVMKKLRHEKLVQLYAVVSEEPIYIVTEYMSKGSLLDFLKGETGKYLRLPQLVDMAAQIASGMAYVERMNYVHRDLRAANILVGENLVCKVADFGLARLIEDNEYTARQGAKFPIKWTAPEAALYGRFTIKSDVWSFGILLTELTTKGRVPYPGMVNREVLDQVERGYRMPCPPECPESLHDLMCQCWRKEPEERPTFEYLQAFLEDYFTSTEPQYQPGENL
# [20] = biological target: Ephrin type-A receptor 4 (Homo sapiens) (UniProt P54764); assay: Inhibition of human EPHA4 assessed as percent of control at 2000 nM by KINOMEscan assay relative to control
# [21] = biological target: RAC-beta serine/threonine-protein kinase (Homo sapiens) (UniProt P31751); assay: Inhibition of human AKT2 assessed as percent of control at 2000 nM by KINOMEscan assay relative to control
# [22] = biological target: Mitogen-activated protein kinase 8 (Homo sapiens) (UniProt P45983); assay: Inhibition of human JNK1 assessed as percent of control at 2000 nM by KINOMEscan assay relative to control
# [23] = biological target: Serine/threonine-protein kinase pim-3 (Homo sapiens) (UniProt Q86V86); assay: Inhibition of human PIM3 assessed as percent of control at 2000 nM by KINOMEscan assay relative to control
# [24] = biological target: Phosphatidylinositol 5-phosphate 4-kinase type-2 gamma (Homo sapiens) (UniProt Q8TBX8); assay: Inhibition of human PIP5K2C assessed as percent of control at 2000 nM by KINOMEscan assay relative to control
# Sequence of Phosphatidylinositol 5-phosphate 4-kinase type-2 gamma (Homo sapiens) (Q8TBX8 whole entry): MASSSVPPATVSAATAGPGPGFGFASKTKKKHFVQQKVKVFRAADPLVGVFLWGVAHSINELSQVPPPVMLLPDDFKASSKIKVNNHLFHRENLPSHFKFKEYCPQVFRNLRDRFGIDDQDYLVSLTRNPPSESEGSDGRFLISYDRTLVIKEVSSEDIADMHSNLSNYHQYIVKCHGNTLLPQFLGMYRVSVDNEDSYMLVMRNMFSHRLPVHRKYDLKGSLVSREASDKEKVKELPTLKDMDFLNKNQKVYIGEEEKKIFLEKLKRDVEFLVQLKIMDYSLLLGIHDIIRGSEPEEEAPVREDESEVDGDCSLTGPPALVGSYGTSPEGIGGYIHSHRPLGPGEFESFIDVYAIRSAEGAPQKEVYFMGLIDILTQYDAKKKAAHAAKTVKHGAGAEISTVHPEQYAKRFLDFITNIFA
# [25] = biological target: Epidermal growth factor receptor (Homo sapiens) (UniProt P00533); assay: Inhibition of human EGFR assessed as percent of control at 2000 nM by KINOMEscan assay relative to control
# Sequence of Epidermal growth factor receptor (Homo sapiens) (P00533 whole entry): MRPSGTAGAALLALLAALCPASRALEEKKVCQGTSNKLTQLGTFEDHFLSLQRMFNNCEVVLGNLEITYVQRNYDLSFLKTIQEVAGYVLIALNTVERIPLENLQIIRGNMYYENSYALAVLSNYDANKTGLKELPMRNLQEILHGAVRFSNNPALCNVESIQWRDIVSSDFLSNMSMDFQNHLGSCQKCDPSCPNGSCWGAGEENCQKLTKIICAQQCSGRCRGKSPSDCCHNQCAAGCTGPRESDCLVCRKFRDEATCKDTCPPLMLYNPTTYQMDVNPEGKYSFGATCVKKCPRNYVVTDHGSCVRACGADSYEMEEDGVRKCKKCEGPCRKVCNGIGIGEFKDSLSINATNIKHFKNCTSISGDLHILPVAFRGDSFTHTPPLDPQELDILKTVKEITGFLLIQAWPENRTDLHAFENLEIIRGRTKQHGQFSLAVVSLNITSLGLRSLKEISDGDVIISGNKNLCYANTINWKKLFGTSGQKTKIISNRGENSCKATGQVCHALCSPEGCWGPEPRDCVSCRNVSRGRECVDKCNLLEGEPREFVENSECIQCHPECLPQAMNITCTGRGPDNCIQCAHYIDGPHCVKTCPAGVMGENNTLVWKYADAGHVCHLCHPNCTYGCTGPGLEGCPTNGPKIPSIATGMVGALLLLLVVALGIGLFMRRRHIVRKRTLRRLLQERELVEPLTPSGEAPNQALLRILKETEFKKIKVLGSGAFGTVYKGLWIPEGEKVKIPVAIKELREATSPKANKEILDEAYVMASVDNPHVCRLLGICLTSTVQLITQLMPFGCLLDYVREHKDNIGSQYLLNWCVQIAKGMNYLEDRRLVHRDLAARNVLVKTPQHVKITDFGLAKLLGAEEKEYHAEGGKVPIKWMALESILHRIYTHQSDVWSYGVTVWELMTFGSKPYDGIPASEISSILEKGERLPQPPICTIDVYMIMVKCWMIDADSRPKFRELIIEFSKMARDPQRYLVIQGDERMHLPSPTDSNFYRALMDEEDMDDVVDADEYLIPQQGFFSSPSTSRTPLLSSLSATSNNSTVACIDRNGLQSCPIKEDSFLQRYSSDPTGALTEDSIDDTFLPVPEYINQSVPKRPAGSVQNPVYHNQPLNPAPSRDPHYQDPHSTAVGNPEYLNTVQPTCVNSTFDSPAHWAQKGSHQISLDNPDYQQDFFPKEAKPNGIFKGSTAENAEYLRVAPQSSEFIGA
# [26] = biological target: Serine/threonine-protein kinase pim-1 (Homo sapiens) (UniProt P11309); assay: Inhibition of human PIM1 assessed as percent of control at 2000 nM by KINOMEscan assay relative to control
# [27] = biological target: TGF-beta receptor type-1 (Homo sapiens) (UniProt P36897); assay: Inhibition of human TGFBR1 assessed as percent of control at 2000 nM by KINOMEscan assay relative to control
# [28] = biological target: Phosphorylase b kinase gamma catalytic chain, skeletal muscle/heart isoform (Homo sapiens) (UniProt Q16816); assay: Inhibition of human PHKG1 assessed as percent of control at 2000 nM by KINOMEscan assay relative to control
# [29] = biological target: Myosin light chain kinase 2, skeletal/cardiac muscle (Homo sapiens) (UniProt Q9H1R3); assay: Inhibition of human MYLK2 assessed as percent of control at 2000 nM by KINOMEscan assay relative to control
# [30] = biological target: Mitogen-activated protein kinase kinase kinase 2 (Homo sapiens) (UniProt Q9Y2U5); assay: Inhibition of human MAP3K2 assessed as percent of control at 2000 nM by KINOMEscan assay relative to control
# [31] = biological target: MAP kinase-interacting serine/threonine-protein kinase 2 (Homo sapiens) (UniProt Q9HBH9); assay: Inhibition of human MKNK2 assessed as percent of control at 2000 nM by KINOMEscan assay relative to control
compound,measurement,setting,value
CN(C)C(=O)c1ccc(N2CCCN(c3ccnc4sc(C(N)=O)c(N)c34)CC2)cc1,Activity,[1],89% and 97%
same,Activity,[2],98% and 100%
same,Activity,[3],94% and 83%
same,Activity,[4],100% and 96%
same,Activity,[5],96% and 91%
same,Activity,[6],86% and 92%
same,Activity,[7],67% and 84%
same,Activity,[8],96% and 75%
same,Activity,[9],56% and 78%
same,Activity,[10],100% and 85%
same,Activity,[11],77% and 81%
same,Activity,[12],100%
same,Activity,[13],100%
same,Activity,[14],100%
same,Activity,[15],78% and 92%
same,Activity,[16],100% and 93%
same,Activity,[17],100%
same,Activity,[18],68% and 67%
same,Activity,[19],100% and 96%
same,Activity,[20],100%
same,Activity,[21],86% and 99%
same,Activity,[22],68%
same,Activity,[22]; INHIBITOR,30%
same,Activity,[23],89% and 98%
same,Activity,[24],80% and 64%
same,Activity,[25],100% and 87%
same,Activity,[26],88% and 100%
same,Activity,[27],100%
same,Activity,[28],94% and 97%
same,Activity,[29],100%
same,Activity,[30],98% and 86%
same,Activity,[31],83% and 69%
